Holding throughout (test): microbe, parasite or virus in culture
One assay concerns Yptb(P^−) pGC1 (empty). The class given is cell-based. Particulars: Yersinia pseudotuberculosis, read-out: minimum inhibitory concentration (MIC).
Assay [1] has as its system Yptb(P^−) ΔmrtAB pGC1 (empty). The class given is cell-based. Particulars: for MIC: Yersinia pseudotuberculosis, read-out: minimum inhibitory concentration (MIC).
Assay [2] concerns Yptb(P^−) ΔmrtAB pmrtA^+B^+. It is filed as cell-based. Particulars: Yersinia pseudotuberculosis, read-out: minimum inhibitory concentration (MIC).
Another assay has as its system Yptb(P^−) pmrtA^+B^+. It is filed as cell-based, Yersinia pseudotuberculosis. Particulars: for MIC: Yersinia pseudotuberculosis, read-out: minimum inhibitory concentration (MIC).
Assay [3] relates to Yptb(P^−) ΔmrtAB pmrtA^+B^+ flag. It is filed as cell-based. The following applies: Yersinia pseudotuberculosis, read-out: minimum inhibitory concentration (MIC).

Converted amounts (≈) assume the structure as drawn.

Take `CC[n+]1c(-c2ccccc2)c2cc(N)ccc2c2ccc(N)cc21` [ethidium bromide]: the MIC in the assay with Yptb(P^−) pGC1 (empty) was determined as 25 µg/mL; in assay [1], 25 µg/mL; in assay [2], 100 µg/mL; in the assay with Yptb(P^−) pmrtA^+B^+, 100 µg/mL; in assay [3], 100 µg/mL.

As to `CN(C)c1ccc2cc3ccc(N(C)C)cc3nc2c1` [aeridine orange, N,N,N′,N′-tetramethylacridine-3,6-diamine], the MIC (with Yptb(P^−) pGC1 (empty); in assay [1]; in assay [2]; in the assay with Yptb(P^−) pmrtA^+B^+) was 50 µg/mL (≈ 188 µM) each time.

On to `Cn1c2cccc(=O)c-2nc2ccccc21` [pyocyanin], for which the MIC in the assay with Yptb(P^−) pGC1 (empty) was determined as 1 µg/mL (≈ 4.76 µM); in assay [1], 1 µg/mL (≈ 4.76 µM); in assay [2], 0.25 µg/mL (≈ 1.19 µM); with Yptb(P^−) pmrtA^+B^+, 0.25 µg/mL (≈ 1.19 µM); in assay [3], 0.25 µg/mL (≈ 1.19 µM). For the same compound, in assay [1], the “difference in MIC resulting from the absence of MrtAB” value is “No difference was detected”. In the assay on Yptb(P^−) pmrtA^+B^+, the “change of susceptibility on expression of mrtAB on multi-copy plasmid (pACYC 184 derivative)” value was “increased susceptibility”.

Source of the values: patent US20140010824A1 (priority 2012, published 2014).
